Assay results taken from ChEMBL document CHEMBL4507311, “Data for DCP probe A-1155463” (2021).

What was measured:
[1] = molecular target: Histamine H3 receptor (Homo sapiens, UniProt Q9Y5N1); experiment: GPCRScan assay: inhibition of H3; set-up: radioligand conc. used [nm] 0.5 – 1.0, parental cells HEK Flp-In
[2] = test system: Tyrosine-protein kinase ABL1 (Homo sapiens), P00519 [F317I]; conditions: Compound concentration 1000.0 nM
[3] = molecular target: Activin receptor type-1B (Homo sapiens) (UniProt P36896); conditions: Compound concentration 1000.0 nM
[4] = molecular target: Aurora kinase C (Homo sapiens) (UniProt Q9UQB9); conditions: Compound concentration 1000.0 nM
[5] = molecular target: Calcium/calmodulin-dependent protein kinase type II subunit beta (Homo sapiens) (UniProt Q13554); conditions: Compound concentration 1000.0 nM
[6] = molecular target: Calcium/calmodulin-dependent protein kinase type II subunit gamma (Homo sapiens) (UniProt Q13555); conditions: Compound concentration 1000.0 nM
[7] = molecular target: Cyclin-dependent kinase 13 (Homo sapiens) (UniProt Q14004); conditions: Compound concentration 1000.0 nM
[8] = molecular target: Death-associated protein kinase 3 (Homo sapiens) (UniProt O43293); conditions: Compound concentration 1000.0 nM
[9] = molecular target: Mitogen-activated protein kinase 3 (Homo sapiens) (UniProt P27361); conditions: Compound concentration 1000.0 nM
[10] = molecular target: Mitogen-activated protein kinase 15 (Homo sapiens) (UniProt Q8TD08); conditions: Compound concentration 1000.0 nM
[11] = molecular target: Fibroblast growth factor receptor 1 (Homo sapiens) (UniProt P11362); conditions: Compound concentration 1000.0 nM
[12] = test system: Receptor-type tyrosine-protein kinase FLT3 (Homo sapiens), P36888 [D835H]; conditions: Compound concentration 1000.0 nM
[13] = molecular target: Receptor-type tyrosine-protein kinase FLT3 (Homo sapiens) (UniProt P36888); conditions: Compound concentration 1000.0 nM
[14] = test system: eIF-2-alpha kinase GCN2 (Homo sapiens), Q9P2K8 [S808G]; conditions: Compound concentration 1000.0 nM
[15] = molecular target: Rhodopsin kinase GRK1 (Homo sapiens) (UniProt Q15835); conditions: Compound concentration 1000.0 nM
[16] = molecular target: Tyrosine-protein kinase HCK (Homo sapiens) (UniProt P08631); conditions: Compound concentration 1000.0 nM
[17] = molecular target: Mitogen-activated protein kinase 9 (Homo sapiens) (UniProt P45984); conditions: Compound concentration 1000.0 nM
[18] = test system: Mast/stem cell growth factor receptor Kit (Homo sapiens), P10721 [A829P]; conditions: Compound concentration 1000.0 nM
[19] = molecular target: Mitogen-activated protein kinase kinase kinase 15 (Homo sapiens) (UniProt Q6ZN16); conditions: Compound concentration 1000.0 nM
[20] = molecular target: Microtubule-associated serine/threonine-protein kinase 1 (Homo sapiens) (UniProt Q9Y2H9); conditions: Compound concentration 1000.0 nM
[21] = molecular target: Mitogen-activated protein kinase kinase kinase 9 (Homo sapiens) (UniProt P80192); conditions: Compound concentration 1000.0 nM
[22] = molecular target: Serine/threonine-protein kinase Nek4 (Homo sapiens) (UniProt P51957); conditions: Compound concentration 1000.0 nM
[23] = molecular target: Serine/threonine-protein kinase Nek5 (Homo sapiens) (UniProt Q6P3R8); conditions: Compound concentration 1000.0 nM
[24] = molecular target: Serine/threonine-protein kinase Nek6 (Homo sapiens) (UniProt Q9HC98); conditions: Compound concentration 1000.0 nM
[25] = molecular target: Serine/threonine-protein kinase Nek7 (Homo sapiens) (UniProt Q8TDX7); conditions: Compound concentration 1000.0 nM
[26] = test system: Phosphatidylinositol 4,5-bisphosphate 3-kinase catalytic subunit alpha isoform (Homo sapiens), P42336 [E545K]; conditions: Compound concentration 1000.0 nM
[27] = molecular target: Serine/threonine-protein kinase pim-2 (Homo sapiens) (UniProt Q9P1W9); conditions: Compound concentration 1000.0 nM
[28] = molecular target: Receptor-interacting serine/threonine-protein kinase 1 (Homo sapiens) (UniProt Q13546); conditions: Compound concentration 1000.0 nM
[29] = molecular target: Rho-associated protein kinase 2 (Homo sapiens) (UniProt O75116); conditions: Compound concentration 1000.0 nM
[30] = molecular target: Ribosomal protein S6 kinase alpha-2 (Homo sapiens) (UniProt Q15349); conditions: Compound concentration 1000.0 nM
[31] = molecular target: Ribosomal protein S6 kinase alpha-6 (Homo sapiens) (UniProt Q9UK32); conditions: Compound concentration 1000.0 nM
[32] = molecular target: Ribosomal protein S6 kinase beta-1 (Homo sapiens) (UniProt P23443); conditions: Compound concentration 1000.0 nM
[33] = molecular target: Mitogen-activated protein kinase kinase kinase 7 (Homo sapiens) (UniProt O43318); conditions: Compound concentration 1000.0 nM
[34] = molecular target: TRAF2 and NCK-interacting protein kinase (Homo sapiens) (UniProt Q9UKE5); conditions: Compound concentration 1000.0 nM
[35] = molecular target: High affinity nerve growth factor receptor (Homo sapiens) (UniProt P04629); conditions: Compound concentration 1000.0 nM
[36] = molecular target: Testis-specific serine/threonine-protein kinase 3 (Homo sapiens) (UniProt Q96PN8); conditions: Compound concentration 1000.0 nM
[37] = molecular target: Serine/threonine-protein kinase 32A (Homo sapiens) (UniProt Q8WU08); conditions: Compound concentration 1000.0 nM
[38] = molecular target: 5-hydroxytryptamine receptor 2B (Homo sapiens) (UniProt P41595); conditions: Compound concentration 10.0 uM
[39] = molecular target: T1, 5-hydroxytryptamine receptor 2C (Homo sapiens) (UniProt P28335); conditions: Compound concentration 10.0 uM
T1 sequence (whole entry): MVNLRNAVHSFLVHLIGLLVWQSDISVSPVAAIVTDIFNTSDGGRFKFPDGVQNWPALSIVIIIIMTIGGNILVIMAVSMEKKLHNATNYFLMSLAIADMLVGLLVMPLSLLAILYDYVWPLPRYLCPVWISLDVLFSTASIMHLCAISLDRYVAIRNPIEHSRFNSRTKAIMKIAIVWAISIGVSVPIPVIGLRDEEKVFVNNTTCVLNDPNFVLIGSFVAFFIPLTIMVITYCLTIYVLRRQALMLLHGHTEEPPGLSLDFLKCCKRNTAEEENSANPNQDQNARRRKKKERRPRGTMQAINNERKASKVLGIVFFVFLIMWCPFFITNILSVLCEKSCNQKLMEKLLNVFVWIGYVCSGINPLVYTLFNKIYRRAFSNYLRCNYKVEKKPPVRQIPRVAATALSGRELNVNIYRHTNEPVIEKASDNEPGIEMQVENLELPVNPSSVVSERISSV

Chain of Calcium/calmodulin-dependent protein kinase type II subunit gamma (Homo sapiens) (Q13555 whole entry): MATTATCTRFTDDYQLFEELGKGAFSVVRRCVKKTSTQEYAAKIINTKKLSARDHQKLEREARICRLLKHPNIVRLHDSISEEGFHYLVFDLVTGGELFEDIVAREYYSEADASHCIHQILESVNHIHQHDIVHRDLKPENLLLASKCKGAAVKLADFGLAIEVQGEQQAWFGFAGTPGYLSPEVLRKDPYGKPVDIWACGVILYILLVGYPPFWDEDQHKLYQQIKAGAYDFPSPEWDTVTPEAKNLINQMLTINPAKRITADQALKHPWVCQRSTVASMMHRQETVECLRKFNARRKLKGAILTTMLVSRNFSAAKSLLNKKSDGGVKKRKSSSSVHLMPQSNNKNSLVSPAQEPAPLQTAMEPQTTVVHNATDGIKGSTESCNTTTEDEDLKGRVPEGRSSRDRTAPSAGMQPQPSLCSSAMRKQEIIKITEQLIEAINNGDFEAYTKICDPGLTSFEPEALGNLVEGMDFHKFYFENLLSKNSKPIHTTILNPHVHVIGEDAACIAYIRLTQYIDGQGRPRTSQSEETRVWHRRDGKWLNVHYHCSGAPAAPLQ
Chain of Tyrosine-protein kinase HCK (Homo sapiens) (P08631 2-526 limits assumed): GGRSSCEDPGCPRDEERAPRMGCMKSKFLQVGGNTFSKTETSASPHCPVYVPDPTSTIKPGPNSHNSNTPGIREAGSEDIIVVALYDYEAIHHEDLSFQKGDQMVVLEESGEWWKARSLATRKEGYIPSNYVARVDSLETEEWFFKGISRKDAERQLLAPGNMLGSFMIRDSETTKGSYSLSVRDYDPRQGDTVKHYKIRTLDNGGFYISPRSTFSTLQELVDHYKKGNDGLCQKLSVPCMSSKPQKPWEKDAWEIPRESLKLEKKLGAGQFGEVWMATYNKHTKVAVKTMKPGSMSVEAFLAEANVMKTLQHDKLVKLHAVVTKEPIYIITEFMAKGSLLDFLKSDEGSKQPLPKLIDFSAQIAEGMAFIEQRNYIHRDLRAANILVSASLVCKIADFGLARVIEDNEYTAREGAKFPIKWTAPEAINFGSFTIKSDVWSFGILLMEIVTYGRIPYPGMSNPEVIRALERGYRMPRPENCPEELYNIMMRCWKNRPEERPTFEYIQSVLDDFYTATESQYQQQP
Chain of Ribosomal protein S6 kinase beta-1 (Homo sapiens) (P23443 whole entry, looked up): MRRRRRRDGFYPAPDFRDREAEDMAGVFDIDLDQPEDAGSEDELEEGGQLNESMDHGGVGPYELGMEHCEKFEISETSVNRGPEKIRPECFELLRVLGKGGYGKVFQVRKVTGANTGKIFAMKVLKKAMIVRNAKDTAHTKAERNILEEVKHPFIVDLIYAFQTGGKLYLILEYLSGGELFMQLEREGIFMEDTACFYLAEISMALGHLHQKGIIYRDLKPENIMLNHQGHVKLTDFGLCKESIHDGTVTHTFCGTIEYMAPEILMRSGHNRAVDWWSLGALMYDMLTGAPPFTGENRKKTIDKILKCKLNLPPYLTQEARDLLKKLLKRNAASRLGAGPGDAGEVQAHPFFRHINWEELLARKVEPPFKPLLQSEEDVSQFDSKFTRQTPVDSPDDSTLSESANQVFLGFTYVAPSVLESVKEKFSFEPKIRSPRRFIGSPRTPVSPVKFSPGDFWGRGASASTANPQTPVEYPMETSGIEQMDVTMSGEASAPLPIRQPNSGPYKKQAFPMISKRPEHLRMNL
Chain of Mast/stem cell growth factor receptor Kit (Homo sapiens), P10721 [A829P] (P10721 whole entry A829P): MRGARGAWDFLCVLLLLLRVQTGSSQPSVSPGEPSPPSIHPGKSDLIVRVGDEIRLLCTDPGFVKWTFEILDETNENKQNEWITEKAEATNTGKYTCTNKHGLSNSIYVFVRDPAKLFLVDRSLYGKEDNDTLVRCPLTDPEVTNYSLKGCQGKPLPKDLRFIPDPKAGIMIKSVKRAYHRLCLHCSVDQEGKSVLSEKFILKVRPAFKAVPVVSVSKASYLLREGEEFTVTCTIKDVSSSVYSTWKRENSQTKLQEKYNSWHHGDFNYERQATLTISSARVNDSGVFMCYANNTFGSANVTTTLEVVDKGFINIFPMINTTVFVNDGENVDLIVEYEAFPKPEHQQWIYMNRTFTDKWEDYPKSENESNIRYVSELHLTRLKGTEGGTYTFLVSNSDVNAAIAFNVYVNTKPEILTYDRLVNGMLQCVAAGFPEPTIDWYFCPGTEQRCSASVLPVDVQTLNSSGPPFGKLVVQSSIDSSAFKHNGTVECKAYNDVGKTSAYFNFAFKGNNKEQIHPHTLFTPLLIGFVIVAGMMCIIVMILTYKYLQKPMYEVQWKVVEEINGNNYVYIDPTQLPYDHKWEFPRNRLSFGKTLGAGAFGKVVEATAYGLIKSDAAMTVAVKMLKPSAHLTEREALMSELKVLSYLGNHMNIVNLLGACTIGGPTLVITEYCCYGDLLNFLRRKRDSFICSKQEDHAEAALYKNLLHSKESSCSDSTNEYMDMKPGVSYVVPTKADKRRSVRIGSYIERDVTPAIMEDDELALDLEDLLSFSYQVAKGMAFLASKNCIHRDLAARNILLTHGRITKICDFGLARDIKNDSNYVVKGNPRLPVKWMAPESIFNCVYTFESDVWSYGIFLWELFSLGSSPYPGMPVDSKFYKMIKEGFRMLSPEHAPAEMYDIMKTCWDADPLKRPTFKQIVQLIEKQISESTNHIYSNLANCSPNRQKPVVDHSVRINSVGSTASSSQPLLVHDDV
Chain of Serine/threonine-protein kinase pim-2 (Homo sapiens) (Q9P1W9 whole entry, looked up): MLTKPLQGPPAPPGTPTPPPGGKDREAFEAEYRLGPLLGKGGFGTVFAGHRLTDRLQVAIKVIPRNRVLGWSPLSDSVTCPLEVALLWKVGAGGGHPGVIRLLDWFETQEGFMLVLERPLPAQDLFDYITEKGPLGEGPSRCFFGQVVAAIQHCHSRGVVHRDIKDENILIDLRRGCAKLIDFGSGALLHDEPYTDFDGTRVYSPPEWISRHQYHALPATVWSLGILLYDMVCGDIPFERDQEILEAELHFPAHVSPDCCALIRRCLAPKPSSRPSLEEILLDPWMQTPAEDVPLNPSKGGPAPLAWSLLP
Chain of Fibroblast growth factor receptor 1 (Homo sapiens) (P11362 22-822 limits assumed): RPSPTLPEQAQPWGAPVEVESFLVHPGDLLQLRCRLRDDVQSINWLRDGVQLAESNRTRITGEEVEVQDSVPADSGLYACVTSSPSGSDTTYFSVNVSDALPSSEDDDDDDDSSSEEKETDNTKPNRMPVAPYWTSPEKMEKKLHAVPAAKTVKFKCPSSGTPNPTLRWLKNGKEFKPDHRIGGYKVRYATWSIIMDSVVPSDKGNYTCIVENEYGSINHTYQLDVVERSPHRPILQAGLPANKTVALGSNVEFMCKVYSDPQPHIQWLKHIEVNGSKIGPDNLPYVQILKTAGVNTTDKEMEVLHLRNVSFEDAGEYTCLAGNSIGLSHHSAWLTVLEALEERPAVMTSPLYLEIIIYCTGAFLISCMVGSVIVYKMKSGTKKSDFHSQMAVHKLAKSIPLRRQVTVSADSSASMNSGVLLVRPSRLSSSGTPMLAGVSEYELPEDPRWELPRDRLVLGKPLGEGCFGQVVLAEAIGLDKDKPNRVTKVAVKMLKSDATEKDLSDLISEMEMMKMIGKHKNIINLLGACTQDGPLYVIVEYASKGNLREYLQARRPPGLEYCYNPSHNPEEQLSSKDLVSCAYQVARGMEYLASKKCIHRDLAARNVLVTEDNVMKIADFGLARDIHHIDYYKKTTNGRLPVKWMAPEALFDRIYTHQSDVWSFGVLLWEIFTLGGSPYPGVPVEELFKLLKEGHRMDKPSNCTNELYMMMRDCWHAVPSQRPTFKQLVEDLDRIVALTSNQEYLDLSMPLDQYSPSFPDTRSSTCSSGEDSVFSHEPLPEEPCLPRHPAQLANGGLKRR
Chain of Ribosomal protein S6 kinase alpha-2 (Homo sapiens) (Q15349 whole entry): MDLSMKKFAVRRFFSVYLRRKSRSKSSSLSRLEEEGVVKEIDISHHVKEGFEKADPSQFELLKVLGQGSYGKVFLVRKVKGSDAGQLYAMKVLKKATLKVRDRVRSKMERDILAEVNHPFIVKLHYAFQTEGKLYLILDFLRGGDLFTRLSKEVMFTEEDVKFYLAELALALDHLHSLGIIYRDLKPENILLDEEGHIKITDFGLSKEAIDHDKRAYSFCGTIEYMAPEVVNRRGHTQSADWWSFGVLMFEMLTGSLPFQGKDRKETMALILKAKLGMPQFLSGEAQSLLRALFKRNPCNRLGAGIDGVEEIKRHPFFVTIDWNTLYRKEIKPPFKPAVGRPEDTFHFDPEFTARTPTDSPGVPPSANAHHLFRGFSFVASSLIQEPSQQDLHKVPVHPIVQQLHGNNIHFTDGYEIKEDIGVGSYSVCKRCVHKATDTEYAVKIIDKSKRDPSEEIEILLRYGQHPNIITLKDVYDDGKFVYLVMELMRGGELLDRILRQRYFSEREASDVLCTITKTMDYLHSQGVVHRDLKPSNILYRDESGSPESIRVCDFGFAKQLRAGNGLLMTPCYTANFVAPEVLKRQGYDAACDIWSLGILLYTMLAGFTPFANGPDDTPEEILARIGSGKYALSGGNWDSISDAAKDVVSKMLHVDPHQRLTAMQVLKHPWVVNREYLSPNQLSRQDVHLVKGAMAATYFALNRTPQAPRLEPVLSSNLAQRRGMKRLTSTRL
Chain of Mitogen-activated protein kinase kinase kinase 7 (Homo sapiens) (O43318 whole entry): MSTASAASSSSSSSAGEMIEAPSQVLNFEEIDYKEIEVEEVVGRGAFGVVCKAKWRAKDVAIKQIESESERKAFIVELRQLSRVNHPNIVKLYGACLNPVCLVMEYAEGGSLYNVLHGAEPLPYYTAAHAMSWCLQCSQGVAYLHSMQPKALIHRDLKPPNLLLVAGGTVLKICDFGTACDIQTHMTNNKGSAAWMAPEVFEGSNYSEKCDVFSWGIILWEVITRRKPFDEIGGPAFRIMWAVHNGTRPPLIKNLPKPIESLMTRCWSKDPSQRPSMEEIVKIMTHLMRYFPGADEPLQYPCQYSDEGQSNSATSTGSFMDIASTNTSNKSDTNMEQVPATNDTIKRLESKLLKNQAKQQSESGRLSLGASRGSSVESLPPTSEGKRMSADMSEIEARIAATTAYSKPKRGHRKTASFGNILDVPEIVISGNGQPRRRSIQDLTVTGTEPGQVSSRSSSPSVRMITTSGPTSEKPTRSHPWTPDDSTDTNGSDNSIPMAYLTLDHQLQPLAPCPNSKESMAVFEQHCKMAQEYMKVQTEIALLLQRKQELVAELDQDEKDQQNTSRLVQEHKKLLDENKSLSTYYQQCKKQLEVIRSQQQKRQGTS

**Q.** With `CN(C)CC#Cc1ccc(OCCCc2sc(N3CCc4cccc(C(=O)Nc5nc6ccccc6s5)c4C3)nc2C(=O)O)c(F)c1` [A-1155463] as the compound, how does the Ki [1] read?
**A.** The Ki was 1.81 µM.

**Q.** And the residual activity [2]?
**A.** The residual activity was 100%.

**Q.** What about the residual activity [3] of the same compound?
**A.** Its residual activity is 100%.

**Q.** What about the residual activity [4] of the same compound?
**A.** Its residual activity is 9%.

**Q.** And the residual activity [5]?
**A.** The residual activity was 79%.

**Q.** What about the residual activity [6] of the same compound?
**A.** Its residual activity is 62%.

**Q.** What about the residual activity [7] of the same compound?
**A.** The residual activity was 100%.

**Q.** What about the residual activity [8] of the same compound?
**A.** The residual activity was 90%.

**Q.** And the residual activity [9]?
**A.** Its residual activity is 96%.

**Q.** And the residual activity [10]?
**A.** Its residual activity is 100%.

**Q.** And the residual activity [11]?
**A.** Its residual activity is 100%.

**Q.** And the residual activity [12]?
**A.** The residual activity was 93%.

**Q.** And the residual activity [13]?
**A.** The residual activity was 95%.

**Q.** What about the residual activity [14] of the same compound?
**A.** Its residual activity is 83%.

**Q.** And the residual activity [15]?
**A.** Its residual activity is 95%.

**Q.** What about the residual activity [16] of the same compound?
**A.** Its residual activity is 100%.

**Q.** What about the residual activity [17] of the same compound?
**A.** The residual activity was 76%.

**Q.** What about the residual activity [18] of the same compound?
**A.** Its residual activity is 100%.

**Q.** What about the residual activity [19] of the same compound?
**A.** Its residual activity is 99%.

**Q.** What about the residual activity [20] of the same compound?
**A.** The residual activity was 89%.

**Q.** What about the residual activity [21] of the same compound?
**A.** The residual activity was 92%.

**Q.** What about the residual activity [22] of the same compound?
**A.** Its residual activity is 98%.

**Q.** What about the residual activity [23] of the same compound?
**A.** The residual activity was 87%.

**Q.** What about the residual activity [24] of the same compound?
**A.** Its residual activity is 100%.

**Q.** What about the residual activity [25] of the same compound?
**A.** The residual activity was 99%.

**Q.** What about the residual activity [26] of the same compound?
**A.** Its residual activity is 95%.

**Q.** And the residual activity [27]?
**A.** The residual activity was 100%.

**Q.** What about the residual activity [28] of the same compound?
**A.** The residual activity was 92%.

**Q.** And the residual activity [29]?
**A.** The residual activity was 100%.

**Q.** And the residual activity [30]?
**A.** The residual activity was 94%.

**Q.** What about the residual activity [31] of the same compound?
**A.** The residual activity was 90%.

**Q.** And the residual activity [32]?
**A.** Its residual activity is 100%.

**Q.** What about the residual activity [33] of the same compound?
**A.** The residual activity was 100%.

**Q.** And the residual activity [34]?
**A.** The residual activity was 83%.

**Q.** And the residual activity [35]?
**A.** Its residual activity is 100%.

**Q.** What about the residual activity [36] of the same compound?
**A.** The residual activity was 84%.

**Q.** And the residual activity [37]?
**A.** Its residual activity is 100%.

**Q.** And the inhibition [38]?
**A.** The inhibition was 5.67%.

**Q.** And the inhibition [39]?
**A.** Its inhibition is 1.97%.
